According to US12084472B2 (Ardelyx, Inc., priority 2015, dated 2024):
Marks after values point to notes of the source that are not given here.

What was measured:
[1] = tested on: mice with DSS-induced colitis; experiment: Inflammatory bowel disease model (DSS colitis): DAI, colon length, cytokines, histology; format: in vivo, C57BL/6 female mice; details: I-389 30 mg/kg PO BID
Method: Six week old C57BL/6 female, were acclimated for 2 days. Starting on Day −2, 5 groups of mice were dosed PO (mL/kg) BID with 1) vehicle (10% HPCD); 2) vehicle; 3) vehicle; mice had sitagliptin (3.6 g/L for a dose of ˜800 mg/kg/day) added to their drinking water; 4) I-389 30 mg/kg; or 5) I-389 30 mg/kg; mice had sitagliptin (3.6 g/L for a dose of 800 mg/kg/day) added to their drinking water. On Day 0, mice in groups 2-5 were put on drinking water containing 1.5% DSS to induce colitis. Note: Groups 3 & 5 were on drinking water containing both DSS and sitagliptin. On Day 7, mice were taken off of DSS treatment and received either regular drinking water (Groups 1, 2, and 4) or drinking water with sitagliptin (Groups 3 and 5). On Day 8, mice were transferred to a separate container for DAI scoring which consists of evaluation of stool consistency, blood in stool, incidence of rectal prolapse, and body condition according to the scoring system shown in Table 19. The DAI score is a summation of each individual score in each category (columns) for a single animal. Mice were euthanized, blood was collected for plasma, colons were removed for length measurement, cytokine analysis, and histological staining, pathological analysis and scoring of colonic tissue damage. Colonic tissue damage was scored according to observed microscopic changes based on the following schema: 0=no significant change, 1=minimal, 2=mild, 3=moderate and 4=severe. Parametric data for each group are presented as mean±SEM. Statistical analysis was performed using one-way ANOVA followed by Holm-Sidak's multiple comparisons test. Statistical significance versus DSS/vehicle is marked as *, P<0.05; **, P<0.01, ***, P<0.001, and ****, P<0.0001. Statistical significance versus DSS/I-389 is marked as †††, P<0.001. Non-parametric data for each group is shown as a dot blot with median (line). Statistical analysis was performed using Kruskal-Wallis test followed by Dunn's test to detect differences between groups.

[2] = tested on: Western diet (WD)-fed mice; experiment: Mouse model of NAFLD and mild diabetes, Western diet (WD)-fed mice: glucose, insulin, liver lipids, GLP levels; format: in vivo, C57BL/6 male mice; details: Western diet, liraglutide 0.4 mg/kg BID SQ, I-389 30 mg/kg BID PO, linagliptin 10 mg/kg QD PO, mean±SEM
Method: Seven week old C57BL/6 male mice were housed 5/cage. Two cages of mice were put on normal chow (Harlan Teklad 2018), and the remaining cages of mice were put on WD (Harlan Teklad, TD.88137, […]/0.2% cholesterol) to induce NAFLD. After 10 weeks, mice were weighed and fasted for 4 h. Blood was collected to measure fasting glucose levels, processed to plasma for measurement of insulin, triglycerides and total cholesterol. This process was repeated on Day 29 of treatment. Based on body weight and fasted glucose and insulin levels, mice were divided into 5 treatment groups (n=10/group), Table 20. […] Mice were weighed twice weekly throughout the study. On the last day of the study (Day 30, 8 hours after food removal), mice were euthanized. Blood was collected in tubes with inhibitors to block DPP-4 activity and processed to plasma for measurement of liver enzymes and GLP levels using an Ace Alera clinical analyzer and the Multi-Array Assay System from Meso Scale Discovery, respectively. The entire liver was collected, weighed, and a sample was taken and weighed for measurement of triglycerides and total cholesterol.
Data for each group are presented as mean±SEM. Statistical analyses were performed using one-way ANOVA followed by Holm-Sidak's multiple comparisons test. For GLP levels, <statistical significance compared to vehicle (WD) is marked as *, P<0.05; **, P<0.01, ***, P<0.001, and ****, P<0.0001; of linagliptin (WD) versus I-389 alone (WD) or linaglptin+I-389 (WD) is marked as †, P<0.05; ††, P<0.01, of †††, P<0.001, and ††††, P<0.0001; and of I-389 (WD) versus linagliptin (WD)+I-389 (WD) is marked as ^, P<0.05; ^ ^P<0.01, ^ ^^P, P<0.001, and ^ ^^^, P<0.0001. For the remaining parameters, statistical significance compared to vehicle (WD) is marked as *, P<0.05; **, P<0.01, ***, P<0.001, and ****, P<0.0001.

human TGR5 = biological target: T1, human TGR5 (Homo sapiens, UniProt Q8TDU6); experiment: Cell-based TGR5 assay (cAMP generation, HTRF); details: HEK293 cells stably transfected with human TGR5; cAMP by HTRF; 30 minutes at 37° C.; read-out: pEC50 Human TGR5 (converted)
T1 construct: expressed in transfected cells; host or cells: HEK293
T1 sequence (Q8TDU6 1-330): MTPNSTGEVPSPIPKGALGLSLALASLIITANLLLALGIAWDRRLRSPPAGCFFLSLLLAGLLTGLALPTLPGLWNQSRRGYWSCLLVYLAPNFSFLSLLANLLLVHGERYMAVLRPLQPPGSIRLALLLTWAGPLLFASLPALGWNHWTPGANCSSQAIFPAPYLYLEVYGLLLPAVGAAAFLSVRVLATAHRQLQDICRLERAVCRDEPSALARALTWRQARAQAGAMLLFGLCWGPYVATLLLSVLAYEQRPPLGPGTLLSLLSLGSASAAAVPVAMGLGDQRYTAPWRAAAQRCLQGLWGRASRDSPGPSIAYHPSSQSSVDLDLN
Outline: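 Read-out was HTRF detection of cAMP, converted to concentration via a standard curve and fitted (3-parameter logistic) for pEC50 and maximal response. Agonist stimulation used HEK293 cells stably transfected with human TGR5, incubated 30 min at 37° C in IBMX-containing buffer at 0.05 nM to 10 μM compound.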

Row | Structure (SMILES) | EC50 (human TGR5) [nM] | other results
1 | N[C@@H](CC(=O)N1CCn2c(nnc2C(F)(F)F)C1)Cc1cc(F)c(F)cc1F [sitagliptin] | – | DSS-induced colonic damage ([1]; 1.5% DSS in drinking water, sitagliptin 3.6 g/L in drinking water (~800 mg/kg/day)): partially abrogated; disease activity score (DAI) ([1]; Day 8, 1.5% DSS, sitagliptin ~800 mg/kg/day in drinking water, vehicle/DSS 5.6, FIG. 2): 3.0; colon length ([1]; Day 8, 1.5% DSS, sitagliptin ~800 mg/kg/day, mean±SEM, vehicle/DSS 4.7±0.1, FIG. 3): 5.6±0.2 cm
2 | CC#CCn1c(N2CCC[C@@H](N)C2)nc2c1c(=O)n(Cc1nc(C)c3ccccc3n1)c(=O)n2C [Linagliptin, linagliptin, reference compound] | – | Liver weight ([2]; vehicle WD 2.13 ± 0.14): 1.77 ± 0.11* g; 4-h fasted insulin ([2]; vehicle WD 2.3 ± 0.3): 1.4 ± 0.2** ng/mL; Hepatic cholesterol ([2]; vehicle WD 8.56 ± 0.25): 10.17 ± 0.21*** mg/g; Hepatic triglycerides ([2]; vehicle WD 145.40 ± 14.80): 117.90 ± 6.76 mg/g; 4-h fasted glucose ([2]; vehicle WD 239 ± 13): 185 ± 6** mg/dL
3 | O=C([C@@H](O)[C@@H](O)[C@H](O)[C@@H](O)CO)N(CCCCO)CCCCSc1ccc(Cl)c(CNC2(c3cnccc3-c3ccccc3OC3CC3)CC2)c1 [Compound I-534, (2S,3S,4R,5S)-N-[4-({4-chloro-3-[({1-[4-(2-cyclopropoxyphenyl)pyridin-3-yl]cyclopropyl}amino)methyl]phenyl}sulfanyl)butyl]-2,3,4,5,6-pentahydroxy-N-(4-hydroxybutyl)hexanamide] | < 100 | –
4 | CC(CCCN)c1ccc(Cl)c(CNC2(c3cnccc3-c3ccccc3OC3CC3)CC2)c1 (stereo not shown) [Compound I-252, N-{[5-(5-aminopentan-2-yl)-2-chlorophenyl]methyl}-1-[4-(2-cyclopropoxyphenyl)pyridin-3-yl]cyclopropan-1-amine] | 126 to 1000 | –
5 | CC(CCCCN(CCOCCO)C(=O)NC[C@H](O)[C@@H](O)[C@H](O)[C@H](O)CO)c1ccc(Cl)c(CNC2(c3cnccc3-c3ccccc3OC3CC3)CC2)c1 (stereo partly drawn) [Compound I-270, 1-(5-{4-chloro-3-[({1-[4-(2-cyclopropoxyphenyl)pyridin-3-yl]cyclopropyl}amino)methyl]phenyl}hexyl)-1-[2-(2-hydroxyethoxy)ethyl]-3-[(2S,3R,4R,5R)-2,3,4,5,6-pentahydroxyhexyl]urea] | < 100 | –
6 | CS(=O)(=O)CCN(C[C@H](O)[C@@H](O)[C@H](O)[C@H](O)CO)C(=O)CCCCc1cc(Cl)c(COC2(c3cnccc3-c3ccccc3OC3CC3)CC2)cc1Cl [Compound I-130, 5-[2,5-dichloro-4-({1-[4-(2-cyclopropoxyphenyl)pyridin-3-yl]cyclopropoxy}methyl)phenyl]-N-(2-methanesulfonylethyl)-N-[(2S,3R,4R,5R)-2,3,4,5,6-pentahydroxyhexyl]pentanamide] | < 100 | –
7 | CN(CCCCNC(=O)NC[C@H](O)[C@@H](O)[C@H](O)[C@H](O)CO)S(=O)(=O)c1cc(CNC2(c3cnccc3-c3ccccc3OC3CC3)CC2)c(Cl)cc1F [Compound I-474, 1-(4-{N-methyl4-chloro-5-[({1-[4-(2-cyclopropoxyphenyl)pyridin-3-yl]cyclopropyl}amino)methyl]-2-fluorobenzenesulfonamido}butyl)-3-[(2S,3R,4R,5R)-2,3,4,5,6-pentahydroxyhexyl]urea] | < 100 | –
8 | CNC(=O)N(CCCCc1cc(Cl)c(COC2(c3cnccc3-c3ccccc3OC3CC3)CC2)cc1Cl)C[C@H](O)[C@@H](O)[C@H](O)[C@H](O)CO [Compound I-79] | < 100 | –
9 | O=C(NCCCCNS(=O)(=O)c1ccc(Cl)c(COC2(c3c[n+]([O-])ccc3-c3ccccc3OC3CC3)CC2)c1)[C@@H](O)[C@@H](O)[C@H](O)[C@@H](O)CO [Compound I-775, 3-(1-((2-chloro-5-(N-(4-((2S,3S,4R,5S)-2,3,4,5,6-pentahydroxyhexanamido)butyl)sulfamoyl)benzyl)oxy)cyclopropyl)-4-(2-cyclopropoxyphenyl)pyridine 1-oxide] | 126 to 1000 | –
10 | COCCCN(CCCCc1cc(Cl)c(COC2(c3cnccc3-c3ccccc3OC3CC3)CC2)cc1Cl)C(=O)[C@@H](O)[C@@H](O)[C@H](O)[C@@H](O)CO [Compound I-212, (2S,3S,4R,5S)-N-{4-[2,5-dichloro-4-({1-[4-(2-cyclopropoxyphenyl)pyridin-3-yl]cyclopropoxy}methyl)phenyl]butyl}-2,3,4,5,6-pentahydroxy-N-(3-methoxypropyl)hexanamide] | < 100 | –
11 | O=C(NCCOCCSc1ccc(Cl)c(CNC2(c3cnccc3-c3ccccc3OC3CC3)CC2)c1)NC[C@H](O)[C@@H](O)[C@H](O)[C@H](O)CO [Compound I-626, 1-{2-[2-({4-chloro-3-[({1-[4-(2-cyclopropoxyphenyl)pyridin-3-yl]cyclopropyl}amino)methyl]phenyl}sulfanyl)ethoxy]ethyl}-3-[(2S,3R,4R,5R)-2,3,4,5,6-pentahydroxyhexyl]urea] | < 100 | –
12 | CN(C[C@H](O)[C@@H](O)[C@H](O)[C@H](O)CO)C(=O)CCC[S+]([O-])c1ccc(Cl)c(CNC2(c3cnccc3-c3ccccc3OC3CC3)CC2)c1 (stereo partly drawn) [Compound I-647, 4-{4-chloro-3-[({1-[4-(2-cyclopropoxyphenyl)pyridin-3-yl]cyclopropyl}amino)methyl]benzenesulfinyl}-N-methyl-N-[(2S,3R,4R,5R)-2,3,4,5,6-pentahydroxyhexyl]butanamide] | 126 to 1000 | –
13 | CC(CCCC(=O)N(CCCO)C[C@H](O)[C@@H](O)[C@H](O)[C@H](O)CO)c1ccc(Cl)c(CNC2(c3cnccc3-c3ccccc3OC3CC3)CC2)c1 (stereo partly drawn) [Compound I-334, 5-{4-chloro-3-[({1-[4-(2-cyclopropoxyphenyl)pyridin-3-yl]cyclopropyl}amino)methyl]phenyl}-N-(3-hydroxypropyl)-N-[(2S,3R,4R,5R)-2,3,4,5,6-pentahydroxyhexyl]hexanamide] | < 100 | –
